pIC50: −log10 of the molar value.
Experiments:
Beta-TC-6 cells = experiment: Insulin release enhancement in Beta-TC-6 cells (insulin ELISA); type: cell-based, mouse; settings: for Percent Enhancement of Insulin Secretion (10 μM): compound at 10 μM; for glucose dependence of stimulation of insulin release: varying glucose concentration, FIG. 3 and FIG. 7
Protocol: Beta-TC-6 cells are an insulin-secreting cell line derived from transgenic mice expressing the large T-antigen of simian virus 40 (SV40) in pancreatic beta-cells as described by Poitout et al., Diabetes, 44:306-313 (1995). The cell line was obtained from ATCC cell bank CAT# CRL-11506 and grown in Dulbecco's Modified Eagle's Medium (DMEM) with 15% fetal bovine serum (FBS), 4 mM glutamine, 4.5 mM glucose 1500 mg/L sodium bicarbonate and 1× penn/strep antibiotic mix in a 37° C. incubator with 5% CO2. Cultures were routinely split 1:2 twice a week with the aid of trypsin.
On the day before the assay 0.1×10^6 Beta-TC-6 cells were plated into each well of 96 well plates, and the cells cultured overnight in growth media.
On the next day, growth media was removed from the plate and the monolayers rinsed with phosphate buffered saline (PBS) and pre-incubated 30 mins at 37° C. in Krebs-Ringer Bicarbonate Buffer (KRBB) consisting of 118.5 mM NaCl, 2.54 mM CaCl2, 1.19 mM KH2PO4, 4.74 mM KCl, 25 mM NaHCO3, 1.19 mM MgSO4, 10 mM HEPES buffer and 0.1% bovine serum albumin at pH 7.4. This buffer was removed and replaced with 100 μL of the same buffer containing various insulin release modulators: including various concentrations of glucose up to 12 mM and compounds up to 100 μM. Compounds stock solutions, e.g. 10-20 mM, were diluted in DMSO. Final DMSO concentrations in incubation buffer were 0.5% or less. Vehicle controls were included. Static incubations were then performed for 2 h at 37° C. The entire incubation volume was collected after the 2 h incubation for insulin assay.
ELISA Protocol for insulin determinations. The following protocol was used for doing ELISA using the Rat/Mouse Insulin ELISA Kit from Linco Research, Inc., CAT#EZRMI-13K and Amplex® Red Hydrogen Peroxide/Peroxidase Assay Kit, CAT#A22188, and Amplex® Red reagent (10-acetyl-3,7-dihydroxyphenoxazine) CAT#A12222.
All reagents were Pre-warmed to room temperature before setting up experiment.
1. Dilute the 10× washing buffer into 1× washing buffer. 50 mL+450 mL de-ionized water. Do 1:10 dilution to the cell culture supernatant (Beta-TC-6 cell incubation).
2. Use one column (8 wells) wells for standard samples and QC1 and QC2, typically 0 and 5 ng/mL of insulin. On some plates full standard curves for insulin obtained as shown below.
3. Cover the unused wells well. Wash each well 3 times with 300 μL of 1× washing buffer each time. (2 minutes each washing step on the shaker.) Decant Wash Buffer and remove the residual amount from all wells by inverting the plate and tapping it smartly onto absorbent towels several times.
4. Add 20 μL Assay Buffer into that blank well and 10 μL into those wells for standards and samples.
5. Add 10 μL rat insulin standards and samples to the appropriate wells.
6. Add 80 μL Detection Antibody to all wells. Cover the plate and incubate at room temperature for 2 hours.
7. Tear off the plate cover and decant solutions from the plate. Tap to remove residual solutions in well.
8. Wash well 3 times with diluted wash buffer 300 μL per well per wash (2 minutes each washing step on the shaker). Tap to remove residual solutions as before.
9. Add 100 μL Enzyme Solution to each well. Cover plate with sealer and incubate with moderate shaking at room temperature for 30 min on the microtiter plate shaker.
10. Remove sealer, decant solutions from the plate and tap plate to remove the residual fluid.
11. Wash wells 6 times with diluted Wash Buffer, 300 μL per well per wash. Decant and tap after each wash to remove residual buffer.
12. Prepare 5 mL working solution of […] Amolex Red reagent containing 2.0 mM H2O2. 4.45 mL of 1× Reaction buffer+50 μL 10 mM Amplex Reagent+500 μL 20 mM H2O2.
13. Add 100 μL of the Amplex Red reagent/H2O2 to each well.
14. Incubate the reactions. Incubate at room temperature for 30 minutes, protected from light (using foil to wrap the plate). […]

[1] = test system: calcium-activated current in Beta TC6 cells; experiment: Whole-cell electrophysiology of calcium-activated current in Beta TC6 cells; type: cell-based, mouse; settings: pulsed doses, current versus time, FIG. 13
Protocol: Whole-cell recordings of TRP channel currents were obtained from acutely trypsinized beta TC-6 cells and TRPM5-expressing HEK cells. The bath solution was Hank's Balanced Salt Solution, composed of (mM); 1.2 CaCl2, 0.5 MgCl2-6H2O, 0.4 MgSO4.7H2O, 5.3 KCl, 0.4 KH2PO4, 137.9 NaCl, 0.3 Na2HPO4.7H2O, and 5.5 D-Glucose, with 20 mM HEPES (Invitrogen), pH 7.4 (NaOH). The internal pipette solution contained, in mM: 135 glutamic acid, 8 NaCl, 9 CaCl2, 10 HEPES and 10 EGTA, pH 7.2 (CsOH) (Sigma). Calculated concentration of free calcium in internal solution was 1.5 μM (http://www.stanford.edu/˜cpatton/webmaxc/webmaxcS.htm). Recording pipettes were pulled using a Flaming/Brown Micropipette Puller (Sutter Instruments), from fire-polished borosilicate glass, to approximately 2 MΩ.
Voltage clamp recordings were obtained in whole cell mode using MultiClamp 700B amplifier and Digidata 1322A converter running on Clampex 9.2 software (Axon Instruments). Recordings were performed at room temperature. The recording protocol consisted of a ramp from −80 mV potential to +80 mV, followed by a step to −80 mV. Peak current was measured at three different voltages: −80 mV, after ramping to +80 mV, then following a return to −80 mV. Series resistance was automatically compensated immediately after the break-in, and the resulting capacitance measurements were used for current density calculations. […]

TRPM5 = biological target: T1, TRPM5 (Homo sapiens, UniProt Q9NZQ8); experiment: TRPM5 inhibition (FLIPR Membrane Potential Assay); type: cell-based
T1 sequence (Q9NZQ8 1-1165): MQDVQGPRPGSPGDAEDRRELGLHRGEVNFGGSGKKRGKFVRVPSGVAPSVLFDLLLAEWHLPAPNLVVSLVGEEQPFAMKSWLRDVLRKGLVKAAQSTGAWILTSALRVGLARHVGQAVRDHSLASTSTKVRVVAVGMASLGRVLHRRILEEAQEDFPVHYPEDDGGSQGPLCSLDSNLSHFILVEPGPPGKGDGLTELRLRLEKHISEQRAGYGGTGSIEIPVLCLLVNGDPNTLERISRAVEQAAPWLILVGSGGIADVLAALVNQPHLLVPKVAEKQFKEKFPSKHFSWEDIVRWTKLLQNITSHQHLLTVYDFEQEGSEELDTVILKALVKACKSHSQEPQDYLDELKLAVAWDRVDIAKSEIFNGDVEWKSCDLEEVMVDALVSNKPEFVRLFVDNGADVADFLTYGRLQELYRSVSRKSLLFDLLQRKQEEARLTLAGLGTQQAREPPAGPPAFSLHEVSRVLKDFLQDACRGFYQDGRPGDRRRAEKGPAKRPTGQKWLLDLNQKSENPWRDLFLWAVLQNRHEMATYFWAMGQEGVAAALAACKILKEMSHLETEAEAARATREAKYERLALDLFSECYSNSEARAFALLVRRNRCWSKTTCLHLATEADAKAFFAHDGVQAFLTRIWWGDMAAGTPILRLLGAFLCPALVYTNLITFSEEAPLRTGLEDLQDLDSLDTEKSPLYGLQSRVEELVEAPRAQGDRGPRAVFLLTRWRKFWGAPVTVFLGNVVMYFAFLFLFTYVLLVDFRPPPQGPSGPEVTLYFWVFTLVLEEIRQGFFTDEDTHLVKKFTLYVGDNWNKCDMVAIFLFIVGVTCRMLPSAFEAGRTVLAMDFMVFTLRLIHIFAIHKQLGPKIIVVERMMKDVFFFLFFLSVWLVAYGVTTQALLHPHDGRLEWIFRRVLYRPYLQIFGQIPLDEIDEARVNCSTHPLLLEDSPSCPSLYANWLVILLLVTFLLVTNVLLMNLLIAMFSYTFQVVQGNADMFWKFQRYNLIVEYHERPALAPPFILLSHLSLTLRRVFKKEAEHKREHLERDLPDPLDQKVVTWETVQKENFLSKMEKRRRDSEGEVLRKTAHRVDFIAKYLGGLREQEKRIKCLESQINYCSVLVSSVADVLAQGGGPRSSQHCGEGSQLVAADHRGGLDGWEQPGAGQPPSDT

[2] = compared to glucose-dependent insulin production

pIC50 (TRPM5)	Compound	effect on insulin secretion in combination with tolbutamide (Beta-TC-6 cells; FIG. 6)	Percent Enhancement of Insulin Secretion (10 μM) (Beta-TC-6 cells; [2])	glucose dependence of stimulation of insulin release (Beta-TC-6 cells)	inhibition of calcium-activated current [1]	Percent Enhancement of Insulin Secretion (Beta-TC-6 cells; tolbutamide tested at 30 μM, compared to glucose-dependent insulin production)
6.22	COc1ccc(/C=N/NC(=O)C2CC2c2ccccc2)cc1OC (centres unmarked) [Example 4, (E)-N′-(3,4-Dimethoxybenzylidene)-2-phenylcyclopropanecarbohydrazide]	additive effects	111%	increases insulin secretion in a glucose-dependent manner	inhibition of the current	–
5.52	COc1ccc(/C=N/NC(=O)COc2cccc(C)c2)cc1OC [Example 8, (E)-N′-(3,4-Dimethoxybenzylidene)-2-(m-tolyloxy)acetohydrazide]	–	39%	–	–	–
6.40	COc1ccc(/C=N/NC(=O)CSc2cc(C)c3cccc(C)c3n2)cc1OC [Example 24, (4,8-Dimethylquinolin-2-ylsulfanyl)acetic acid (3,4-dimethoxybenzylidene)hydrazide]	–	207%	–	–	–
–	CCCCNC(=O)NS(=O)(=O)c1ccc(C)cc1 [Tolbutamide, tolbutamide, reference compound]	–	–	not sensitive to glucose levels	–	228%
